Measured values from patent publication US20050187179A1, “Apoptosis inducing agents and methods” (The Government of the United States of America as …, priority 1998, published 2005).

Assays:
thymocytes = assay: Apoptosis of thymocytes from Notch-1 antisense transgenic mice after dexamethasone; assay type: cell-based, mouse; settings: thymocytes of Notch-1 antisense transgenic mice, pharmacologic dose
Text: A pMAMneo plasmid was used which contained the same insert that was used in the pcDNA 3.1 plasmid that was introduced into the MEL cells. This construct expresses the antisense under a MMTV LTR promoter, which has good basal activity and is stimulated by several steroid hormones, such as estradiol, glucocorticoids and androgens. The plasmid was linearized, purified, and microinjected into mouse embryos which were then implanted into surrogate mothers. Pups were screened for the presence of the transgene by PCR on tail snippets. This was done on two separate instances, which generated one positive founder male and one positive founder female containing Notch-1 antisense in their genomes. The founder animals were separately bred into a C57bl6 background for several generations until homozygous positive mice were obtained which bred true (generated all positive litters).
Pharmacological stimuli were used to induce apoptosis more readily in thymocyte cells from these mice.
Thymocytes undergo differentiation in the thymus, and normally express Notch-1. Spontaneous apoptosis levels in thymocytes were not increased, but apoptosis and cell death levels were increased about 50% by a pharmacologic dose of dexamethasone, a steroid used for the treatment of T-cell leukemias which induces rapid terminal differentiation and death in thymocytes. […]

MEL cells [1] = settings: cited from earlier work; for HG cells, % (% of cells hemoglobinized): Table 3, at optimal concentration; for Opt. [ ], μM (Optimal concentration): Table 3
actin = assay: Actin levels in S-oligo treated MEL cells; assay type: cell-based, mouse; settings: sense, antisense and scrambled compared
Method: (§1) The late apoptotic fraction (sub-G1 peak) in cells treated with Lin-12 sense, antisense and scrambled S-oligos in the presence of HMBA was determined by flow cytometry (FIG. 11B). […] The Lin-12 antisense S-oligo, but not the sense or scrambled control, decreased expression of Notch-1 protein by 50-75% at 48 hours in three experiments. […] Actin expression was also unaffected by a transfected 1100 bp construct in a plasmid, as discussed below in Example 11.

MEL cells [2] = assay: Late apoptotic fraction (sub-G1 peak) and viability of S-oligo treated MEL cells, flow cytometry; assay type: cell-based, mouse
Method: as §1
Parental MEL or transfected clones were synchronized for cell cycle analysis experiments by density arrest (Ryan et al., Mol. Cell Biol. 1993, 13:711-719). At this point, cells were plated at 1×10^5 cells/ml in medium containing 5 mM HMBA. For the transfected clones, 700 μg/ml G418 was added to the medium. At 16 hours, cells were harvested, fixed in 1% paraformaldehyde for 15 minutes and then 70% ethanol overnight. Cells were resuspended, at constant cell density, in PI solution (50 μg/ml PI (propidum iodide), 0.1% Triton-X-100, 200 μg/ml RNAase A) for 1 hour at room temperature with mixing. […] The DNA content of cells was determined using a Becton Dickinson FACScan flow cytometer. Cells appearing as a sub-G1 peak were scored as apoptotic. In cell cycle analyses, apoptotic and dead cells were gated out and only the viable population was analyzed.

Notch-1 protein = Notch-1 protein expression in S-oligo treated MEL cells; assay type: cell-based, mouse; settings: at 48 hours, three experiments
Method: as §1
Cell pellets were solubilized in hot 2×SDS sample buffer containing 10% β-ME and analyzed by 4% SDS/PAGE. Proteins were electroblotted to Immobilon P (Millipore) in 10 mM CAPS with 10% methanol at 0.75 A for 5 hours. Notch-1 proteins were detected using a chemiluminescence Western blotting kit (Boehringer Mannheim) according to manufacturer's instructions. Relative band intensities were determined by the Kodak 1-D analysis software.

SY5Y cells = assay: SY5Y cell survival with S-oligos and antineoplastic agent (CellTiter 96 AQueous assay); assay type: cell-based, human; settings: 50 ng/ml agent, S-oligos 25-100 μM, 1 μM RA
Method: SY5Y cells, a neuroblastoma cell line (Example 3) were split into 96 well plates and grown in RPMI 1640 with glutamine, 10% FCS and 1 μM RA. At approximately 60% confluence, the phosphorothioate oligonucleotides (S-oligos, antisense, sense and scrambled; see Example 10) at various concentrations (25, 50, 75 and 100 μM) were added. Subsequently, 50 ng/ml of vinblastine (Sigma, St. Louis Mo., V-1377) was added to half of the wells (based on preliminary dose ranging experiments). Cell survival was measured using Promega's CellTiter 96 AQueous assay, which measures viable cells in the well. Paclitaxel (Sigma, St. Louis Mo., T-1912), another member of the […], was also tested (at 50 ng/ml) using this same assay.

Notch-1 = Notch-1 mRNA and protein expression in MEL cells with HMBA (RT-PCR, western blot); assay type: cell-based, mouse; settings: 5 mM HMBA, 4 to 120 hours
Method: Total RNA was extracted from cells using Trizol reagent (Life Technologies). RT-PCR was performed using the Thermostable Reverse Transcriptase RNA PCR kit (Perkin Elmer) according to manufacturer's instructions. Reactions were amplified in a Perkin Elmer 2400 DNA thermal cycler for 40 cycles of denaturation at 94° C. for 1 minute, annealing and extension at 65° C. for 2 minutes. Amplification of mouse primers specific for Notch-1, SEQ ID NO 1, and SEQ ID NO 2, generated a product of 431 bp. Primers specific for GAPDH: sense 5′ TCACCACCATGGAGAAGG 3′ (SEQ ID NO 3) and antisense 5′ […] 3′ (SEQ ID NO 4) generated a 200 bp product. Negative and positive PCR controls were included in every experiment.
To determine whether Notch-1 expression is regulated during HMBA-induced MEL cell differentiation, Notch-1 mRNA levels were analyzed in MEL cells set up at equal density and maintained in culture for 4, 8, 24 or 120 hours in the absence or presence of HMBA.
Notch-1 steady state protein levels were determined by western blot using the polyclonal antibody to Notch-1 (see Example 2). […] Notch-1 steady state protein levels reflected the Notch-1 mRNA pattern of expression. In the presence of HMBA (H), Notch-1 protein was reproducibly evident in the early stages of induction, but gradually disappeared becoming essentially undetectable at 120 hours. […] In uninduced MEL cells (C). […]

[3] = patients; cited from earlier work
MEL cells [4] = assay: HMBA-induced MEL cell differentiation, benzidine staining for hemoglobin; assay type: cell-based, mouse; settings: 5 mM HMBA, at 120 hours
Method: Murine erythroleukemia Friend cells (MEL), were maintained in RPMI supplemented with 10% (v/v) heat inactivated fetal bovine serum (HyClone) and 10^−5 M β-mercaptoethanol (β-ME). To induce differentiation, logarithmically growing cells were plated at 1×10^5 cells/ml in medium containing 5 mM HMBA for 120 hours. Cells were passaged to initial density at 72 hours. Cells were assayed for the presence of hemoglobin (Orkin et al., Proc. Natl. Acad. Sci. USA 1975, 72:98-102) by the addition of 1/10 volume of freshly prepared benzidine reagent (0.4% benzidine base, 2% hydrogen peroxide in 12% acetic acid). Benzidine positive cells were counted in modified Neubauer hemocytometers. Each sample was counted by two independent operators, blinded to the cell treatment, and readings were averaged.
The accumulation of differentiated cells, as determined by benzidine staining, was analyzed during the 120 hours of culture with HMBA (FIG. 8C). There was a steady increase in differentiated cells from 48 hours onwards, that generally reached 35-45%, at 120 hours. […] Cultures were not continued beyond 120 hours, because at this time Notch-1 was reproducibly undetectable.

[5] = tested on: MEL murine erythroleukemia cells; parameters: key: +: Compound induces terminal differentiation of the transformed cells; settings: terminal differentiation; cited from earlier work
Transformed cells = settings: Table 2, hybrid polar compounds; cited from earlier work
[6] = tested on: HT-29 human colon cancer cells; parameters: key: +: Compound induces terminal differentiation of the transformed cells; settings: terminal differentiation; cited from earlier work
[7] = tested on: HL-60 human promyelocytic leukemia cells; parameters: key: +: Compound induces terminal differentiation of the transformed cells; settings: terminal differentiation; cited from earlier work
3T3-L1 cells = settings: Garcés et al. 1997; cited from earlier work

For `C[C@@H]1C[C@H]2[C@@H]3CCC4=CC(=O)C=C[C@]4(C)[C@@]3(F)[C@@H](O)C[C@]2(C)[C@@]1(O)C(=O)CO` [dexamethasone], the “increase of apoptosis and cell death levels” value (thymocytes) was “about 50%”.

For `O=C(CCCCCNC(=O)Nc1cccc(Cl)c1)NO` [3-Cl-UCHA], the “HG cells, % (% of cells hemoglobinized)” value (MEL cells [1]) is listed as 32% and the “Opt. [ ], μM (Optimal concentration)” value (MEL cells [1]) is listed as 4.0 µM.

With “AGACTGCGTGCAGTTCTTCCAGG (all phosphorothioate, sugars by position and methylation of C not given here) [Lin-12 antisense S-oligo, phosphorothioate antisense oligo for the Lin/Notch region of Notch-1]” the actin levels (actin) was “No difference in actin levels”, the “late apoptotic fraction (sub-G1 peak)” value (MEL cells [2]; 25 μM S-oligo in the presence of HMBA, 120 hours) was “significantly larger effect than either sense (SEN) or scrambled (SCR) controls” and the “viability (cells within G1, G2/S or M regions)” value (MEL cells [2]; S-oligo in the presence of HMBA) was “parallel decrease in viability”. The “decrease of Notch-1 protein expression” value (Notch-1 protein) was 50-75%.

In the case of `O=C(CCCCCCC(=O)NO)NO` [SBHA], the “HG cells, % (% of cells hemoglobinized)” value (MEL cells [1]) is listed as 94% and the “Opt. [ ], μM (Optimal concentration)” value (MEL cells [1]) is listed as 30 µM.

For `O=C(/C=C/c1cccc(C(=O)NO)c1)NO` [CBHA, m-carboxycinnamic acid bishydroxamide], the “HG cells, % (% of cells hemoglobinized)” value (MEL cells [1]) is listed as 73% and the “Opt. [ ], μM (Optimal concentration)” value (MEL cells [1]) is listed as 4.0 µM.

For `CC(=O)O[C@H]1C(=O)[C@@]2(C)[C@H]([C@H](OC(=O)c3ccccc3)[C@]3(O)C[C@H](OC(=O)[C@H](O)[C@@H](NC(=O)c4ccccc4)c4ccccc4)C(C)=C1C3(C)C)[C@]1(OC(C)=O)CO[C@@H]1C[C@@H]2O` [Paclitaxel], the “cell survival, antineoplastic agent combined with Notch-1 antisense S-oligos” value (SY5Y cells) was “cell survival was decreased to a greater extent”.

In the case of `CC(/C=C/C(=O)NO)=C\[C@@H](C)C(=O)c1ccc(N(C)C)cc1` [TSA], the “HG cells, % (% of cells hemoglobinized)” value (MEL cells [1]) is given as 80% and the “Opt. [ ], μM (Optimal concentration)” value (MEL cells [1]) is given as 0.075 µM.

For `CC(=O)NCCCCCCNC(C)=O` [HMBA, hexamethylene bisacetamide], the “effect on Notch-1 expression pattern” value (Notch-1) is listed as “causing an early increase in Notch-1 followed by a progressive decline”, the “adverse effect of therapy” value [3] is listed as “can result in thrombocytopenia” and the “HG cells, % (% of cells hemoglobinized)” value (MEL cells [1]) is listed as 95%. For the same molecule, the “Opt. [ ], μM (Optimal concentration)” value (MEL cells [1]) was 5,000 μM and the “differentiated (benzidine-positive) cells” value (MEL cells [4]) was 35-45%.

In the case of `O=C(/C=C/c1ccc(C(=O)NO)cc1)NO`, the “Transformed cells MEL” value [5] is listed as “+”, the “Opt. [ ], μM (Optimal concentration)” value (Transformed cells) is listed as 10 to 60 µM and the “Transformed cells HT-29” value [6] is listed as “+”. For the same molecule, the “Transformed cells HL-60” value [7] was “+”.

In the case of `CC[C@]1(O)C[C@@H]2CN(CCc3c([nH]c4ccccc34)[C@@](C(=O)OC)(c3cc4c(cc3OC)N(C)[C@H]3[C@@](O)(C(=O)OC)[C@H](OC(C)=O)[C@]5(CC)C=CCN6CC[C@]43[C@@H]65)C2)C1` [vinblastine], the “cell survival, antineoplastic agent combined with Notch-1 antisense S-oligos” value (SY5Y cells) is reported as “cell survival was decreased to a greater extent”.

In the case of `O=C(CCCCCCCCC(=O)NO)NO`, the “Transformed cells MEL” value [5] is given as “+”, the “Opt. [ ], μM (Optimal concentration)” value (Transformed cells) is given as 10 to 60 µM and the “Transformed cells HT-29” value [6] is given as “+”. For the same molecule, the “Transformed cells HL-60” value [7] was “+”.

In the case of `CC(=O)NCCCCCCCCNCC=O`, the “Transformed cells MEL” value [5] is listed as “+”, the “Opt. [ ], μM (Optimal concentration)” value (Transformed cells) is listed as 5,000 μM and the “Transformed cells HT-29” value [6] is listed as “+”. For the same molecule, the “Transformed cells HL-60” value [7] was “+”.

For “rh11-12: human recombinant Notch-1 EGF-repeats 11 and 12, 6-Histidine tagged, expressed in E. coli”, the “effect on differentiation of 3T3-L1 cells” value (3T3-L1 cells) is given as “blocked their differentiation”.

For `O=C(CCCCCCC(=O)Nc1ccccc1)NO` [SAHA, Suberoylanilide hydroxamic acid], the “HG cells, % (% of cells hemoglobinized)” value (MEL cells [1]) is given as 68% and the “Opt. [ ], μM (Optimal concentration)” value (MEL cells [1]) is given as 2.5 µM.

For `CNC(=O)CCCCCCCCC(=O)NC`, the “Transformed cells MEL” value [5] is listed as “+”, the “Opt. [ ], μM (Optimal concentration)” value (Transformed cells) is listed as 5,000 μM and the “Transformed cells HT-29” value [6] is listed as “+”. For the same molecule, the “Transformed cells HL-60” value [7] was “+”.
